Common to all, as to format: biochemical
Assay [1] has as its target T1, recombinant rabbit GSK-3β protein (Oryctolagus cuniculus, UniProt G1T8E2).
T1 construct: purchased New England Biolabs
Description: Glycogen Synthase Kinase-3 Assay. To be noted: PPI-2 substrate, 33P-ATP, 90 minutes at 30° C. The protocol:
Compounds were tested for the ability to inhibit recombinant rabbit GSK-3β protein using the following protocol. The test compound was added to a reaction mixture containing Protein phosphatase inhibitor-2 (PPI-2) (Calbiochem) (45 ng), rabbit GSK-3β protein (New England Biolabs) (0.75 units) and ^33P-ATP (1 μCi) in 50 mM Tris-HCl (pH 8.0), 10 mM MgCl2, 0.1% BSA, 1 mM DTT and 100 μM Sodium Vanadate. The mixture was reacted for 90 minutes at 30° C. to allow phosphorylation of the PPI-2 protein and then the protein in the reaction was precipitated using 10% TCA. The precipitated protein was collected on filter plates (MultiScreen-DV/Millipore), which were subsequently washed. Finally, the radioactivity was quantified using a TopCount Scintillation Counter (Packard).

In assay [2] the target is PKC β-II (Homo sapiens, UniProt P05771). The assay can be described thus: Protein Kinase C Histone-Based Assay, β-II isoform. To be noted: histone III substrate, 30 μM ATP, 10 min at 30° C.; read-out: PKC Activity (IC50 μM, Histone Based Assay) Beta II. The protocol:
(§1) Compounds were evaluated for PKC selectivity using histone III as the substrate. […] The reaction was incubated for 10 min at 30° C. Reactions were terminated by TCA precipitation and spotting on Whatman P81 filters. Filters were washed in 75 mM phosphoric acid and the radioactivity quantified by liquid scintillation counting.

The target in assay [3] is PKC γ (Homo sapiens, UniProt P05129). Description: Protein Kinase C Histone-Based Assay, γ isoform. To be noted: histone III substrate, 30 μM ATP, 10 min at 30° C.; read-out: PKC Activity (IC50 μM, Histone Based Assay) Gamma. The protocol:
as §1

The target in assay [4] is PKC α (Homo sapiens, UniProt P17252). Description: Protein Kinase C Histone-Based Assay, α isoform. To be noted: histone III substrate, 30 μM ATP, 10 min at 30° C.; read-out: PKC Activity (IC50 μM, Histone Based Assay) Alpha. The method, then: as §1

Sequence of PKC β-II (P05771 1-673 isoform P05771-2): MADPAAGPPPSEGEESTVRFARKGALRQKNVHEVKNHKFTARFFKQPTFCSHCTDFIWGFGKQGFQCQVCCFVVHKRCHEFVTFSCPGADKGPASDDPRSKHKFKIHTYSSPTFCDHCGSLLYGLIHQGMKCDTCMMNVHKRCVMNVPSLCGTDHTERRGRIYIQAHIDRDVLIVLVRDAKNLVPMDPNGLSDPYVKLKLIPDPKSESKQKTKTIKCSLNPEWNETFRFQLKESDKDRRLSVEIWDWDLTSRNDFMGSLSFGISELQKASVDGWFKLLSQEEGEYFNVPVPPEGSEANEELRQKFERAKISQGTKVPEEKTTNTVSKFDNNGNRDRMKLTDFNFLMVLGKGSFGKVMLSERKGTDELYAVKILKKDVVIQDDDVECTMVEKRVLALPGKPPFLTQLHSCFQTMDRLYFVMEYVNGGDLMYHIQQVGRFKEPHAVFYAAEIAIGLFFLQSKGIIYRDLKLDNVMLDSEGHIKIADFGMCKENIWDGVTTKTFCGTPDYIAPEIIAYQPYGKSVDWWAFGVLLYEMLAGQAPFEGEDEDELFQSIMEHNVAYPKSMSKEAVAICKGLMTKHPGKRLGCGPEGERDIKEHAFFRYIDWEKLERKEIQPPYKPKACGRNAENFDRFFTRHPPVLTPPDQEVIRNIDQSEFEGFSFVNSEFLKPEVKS
T1 sequence (G1T8E2 1-432): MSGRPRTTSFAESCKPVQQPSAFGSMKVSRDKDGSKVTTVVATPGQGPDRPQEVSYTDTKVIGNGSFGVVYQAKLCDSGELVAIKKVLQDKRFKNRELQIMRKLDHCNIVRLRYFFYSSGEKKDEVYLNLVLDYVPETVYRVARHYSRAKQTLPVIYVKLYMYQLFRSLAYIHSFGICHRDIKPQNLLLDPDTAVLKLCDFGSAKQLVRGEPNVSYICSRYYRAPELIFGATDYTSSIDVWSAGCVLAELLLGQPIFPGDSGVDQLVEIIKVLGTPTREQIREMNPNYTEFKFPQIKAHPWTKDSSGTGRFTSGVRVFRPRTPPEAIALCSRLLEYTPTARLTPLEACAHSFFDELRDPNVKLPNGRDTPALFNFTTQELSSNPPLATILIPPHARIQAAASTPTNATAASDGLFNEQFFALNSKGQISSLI

Turning to `O=C1NC(=O)C(c2nn(CCOCCO)c3ccccc23)=C1c1cn(-c2cccnc2)c2ccccc12` [Compound 106, 3-[1-[2-(2-hydroxyethoxy)ethyl]-1H-indazol-3-yl]-4-[1-(3-pyridinyl)-1H-indol-3-yl]-1H-pyrrole-2,5-dione], in assay [1], the IC50 came out at 0.033 µM.

Take `Cn1cc(C2=C(c3nn(CCCO)c4ccccc34)C(=O)NC2=O)c2cc(Cl)ccc21` [Compound 74, 3-(5-chloro-1-methyl-1H-indol-3-yl)-4-[1-(3-hydroxypropyl)-1H-indazol-3-yl]-1H-pyrrole-2,5-dione]: the IC50 in assay [1] worked out at 0.014 µM.

Consider `O=C1NC(=O)C(c2nn(CCCO)c3ccccc23)=C1c1cn(-c2cccnc2)c2ccccc12` [Compound 94, 3-[1-(3-hydroxypropyl)-1H-indazol-3-yl]-4-[1-(3-pyridinyl)-1H-indol-3-yl]-1H-pyrrole-2,5-dione], for which the IC50 in assay [2] is 0.011 µM; in assay [1] it was 0.058 µM; in assay [3] it was 0.411 µM; in assay [4], 0.306 µM.

Take `CNCCCn1nc(C2=C(c3cn(C)c4ccc(Cl)cc34)C(=O)NC2=O)c2ccccc21` [Compound 80, 3-(5-chloro-1-methyl-1H-indol-3-yl)-4-[1-[3-(methylamino)propyl]-1H-indazol-3-yl]-1H-pyrrole-2,5-dione]: the IC50 in assay [2] was 0.018 µM; in assay [1], 0.051 µM; in assay [3], 0.512 µM; in assay [4], 0.328 µM.

`Cn1cc(C2=C(c3nn(CCCN4CCCC4)c4ccccc34)C(=O)NC2=O)c2cc(Cl)ccc21` [Compound 75, 3-(5-chloro-1-methyl-1H-indol-3-yl)-4-[1-[3-(1-pyrrolidinyl)propyl]-1H-indazol-3-yl]-1H-pyrrole-2,5-dione]: the IC50 in assay [2] amounted to 0.01 µM; in assay [1], 0.033 µM; in assay [3] it was 0.175 µM; in assay [4], 0.204 µM.

`O=C1NC(=O)C(c2nn(CCCCO)c3ccccc23)=C1c1cn(-c2cccnc2)c2ccccc12` [Compound 111, 3-[1-(4-hydroxybutyl)-1H-indazol-3-yl]-4-[1-(3-pyridinyl)-1H-indol-3-yl]-1H-pyrrole-2,5-dione]: the IC50 in assay [1] was 0.04 µM.

In the case of `C=Cn1cc(C2=C(c3nn(CC(O)CN(C)C)c4ccccc34)C(=O)NC2=O)c2ccccc21` (centres unmarked) [Compound 1, 3-[1-[3-(dimethylamino)-2-hydroxypropyl]-1H-indazol-3-yl]-4-(1-ethenyl-1H-indol-3-yl)-1H-pyrrole-2,5-dione], the IC50 came to 0.014 µM in assay [2], 0.09 µM in assay [1], 0.058 µM in assay [3] and 0.052 µM in assay [4].

Take `CN(C)CCCn1nc(C2=C(c3cn(C)c4ccc(Cl)cc34)C(=O)NC2=O)c2ccccc21` [Compound 43, 3-(5-chloro-1-methyl-1H-indol-3-yl)-4-[1-[3-(dimethylamino)propyl]-1H-indazol-3-yl]-1H-pyrrole-2,5-dione]: in assay [1], the IC50 amounted to 0.034 µM.

`C=Cn1cc(C2=C(c3nn(CCCN(C)C)c4ccccc34)C(=O)NC2=O)c2cc(Cl)ccc21` [Compound 6, 3-(5-chloro-1-ethenyl-1H-indol-3-yl)-4-[1-[3-(dimethylamino)propyl]-1H-indazol-3-yl]-1H-pyrrole-2,5-dione]: the IC50 is 0.013 µM in assay [2], 0.048 µM in assay [1], 0.129 µM in assay [3] and 0.105 µM in assay [4].

As for `CCn1cc(C2=C(c3nn(CCCN(C)C)c4ccccc34)C(=O)NC2=O)c2ccc(Cl)cc21` [Compound 90, 3-(6-chloro-1-ethyl-1H-indol-3-yl)-4-[1-[3-(dimethylamino)propyl]-1H-indazol-3-yl]-1H-pyrrole-2,5-dione], the IC50 in assay [1] worked out at 0.096 µM.

For `O=CCCn1nc(C2=C(c3cn(-c4cccnc4)c4ccccc34)C(=O)NC2=O)c2ccccc21` [Compound 112, 1H-indazole-1-propanal, 3-[2,5-dihydro-2,5-dioxo-4-[1-(3-pyridinyl)-1H-indol-3-yl]-1H-pyrrol-3-yl]-1H-pyrrole-2,5-dione], the IC50 in assay [1] amounted to 0.115 µM.

Take `O=C1NC(=O)C(c2cn(-c3cccnc3)c3ccccc23)=C1c1[nH]nc2ccccc12` [Compound 118, 3-(1H-indazol-3-yl)-4-[1-(3-pyridinyl)-1H-indol-3-yl]-1H-pyrrole-2,5-dione]: the IC50 in assay [1] worked out at 0.2 µM.

On to `COCCCn1nc(C2=C(c3cn(-c4cccnc4)c4ccccc34)C(=O)NC2=O)c2ccccc21` [Compound 117, 3-[1-(3-methoxypropyl)-1H-indazol-3-yl]-4-[1-(3-pyridinyl)-1H-indol-3-yl]-1H-pyrrole-2,5-dione], for which the results for the IC50 in assay [2] and in assay [1] were 0.034 µM and 0.07 µM, respectively.

Turning to `CN(C)CCCn1nc(C2=C(c3cn(-c4ccccc4)c4ccc(Cl)cc34)C(=O)NC2=O)c2ccccc21` [Compound 48, 3-(5-chloro-1-phenyl-1H-indol-3-yl)-4-[1-[3-(dimethylamino)propyl]-1H-indazol-3-yl]-1H-pyrrole-2,5-dione], the IC50 in assay [1] came to 0.09 µM.

For `CCn1cc(C2=C(c3nn(CCCN(C)C)c4ccccc34)C(=O)NC2=O)c2cc(C#N)ccc21` [Compound 98, 3-[4-[1-[3-(dimethylamino)propyl]-1H-indazol-3-yl]-2,5-dihydro-2,5-dioxo-1H-pyrrol-3-yl]-1-ethyl-1H-indole-5-carbonitrile], the IC50 in assay [1] was found to be 0.015 µM.

Turning to `CN(C)CCCn1nc(C2=C(c3cn(-c4ccncc4)c4ccccc34)C(=O)NC2=O)c2ccccc21` [Compound 32, 3-[1-[3-(dimethylamino)propyl]-1H-indazol-3-yl]-4-[1-(4-pyridinyl)-1H-indol-3-yl]-1H-pyrrole-2,5-dione], the IC50 in assay [1] was 0.51 µM.

Turning to `C=Cn1cc(C2=C(c3nn(CC(O)CN(C)C)c4ccc(Cl)cc34)C(=O)NC2=O)c2ccccc21` (centres unmarked) [Compound 4, 3-[5-chloro-1-[3-(dimethylamino)-2-hydroxypropyl]-1H-indazol-3-yl]-4-(1-ethenyl-1H-indol-3-yl)-1H-pyrrole-2,5-dione], in assay [1], the IC50 was found to be 0.27 µM.

Turning to `CC(=O)OCCCn1nc(C2=C(c3cn(C)c4ccc(Cl)cc34)C(=O)NC2=O)c2ccccc21` [Compound 76, 3-[1-[3-(acetyloxy)propyl]-1H-indazol-3-yl]-4-(5-chloro-1-methyl-1H-indol-3-yl)-1H-pyrrole-2,5-dione], in assay [1], the IC50 came to 0.085 µM.

For the molecule `CCn1cc(C2=C(c3nn(CCCN(C)C)c4ccccc34)C(=O)NC2=O)c2cccc(Cl)c21` [Compound 95, 3-(7-chloro-1-ethyl-1H-indol-3-yl)-4-[1-[3-(dimethylamino)propyl]-1H-indazol-3-yl]-1H-pyrrole-2,5-dione], the IC50 in assay [1] came to 0.06 µM.

In the case of `O=C1NC(=O)C(c2nn(CCO)c3ccccc23)=C1c1cn(-c2cccnc2)c2ccccc12` [Compound 110, 3-[1-(2-hydroxyethyl)-1H-indazol-3-yl]-4-[1-(3-pyridinyl)-1H-indol-3-yl]-1H-pyrrole-2,5-dione], in assay [1], the IC50 was 0.075 µM.

Take `O=C1NC(=O)C(c2nn(CCCO)c3ccccc23)=C1c1cn(-c2cncc3ccccc23)c2ccccc12` [Compound 105, 3-[1-(3-hydroxypropyl)-1H-indazol-3-yl]-4-[1-(4-isoquinolinyl)-1H-indol-3-yl]-1H-pyrrole-2,5-dione]: the IC50 in assay [1] amounted to 0.073 µM.

For `CN(C)CCCn1nc(C2=C(c3cn(-c4cccs4)c4ccc(Cl)cc34)C(=O)NC2=O)c2ccccc21` [Compound 33, 3-[5-chloro-1-(2-thienyl)-1H-indol-3-yl]-4-[1-[3-(dimethylamino)propyl]-1H-indazol-3-yl]-1H-pyrrole-2,5-dione], in assay [1], the IC50 was found to be 0.07 µM.

On to `CN(C)CCCn1nc(C2=C(c3cn(-c4cccnc4)c4ccc(Cl)cc34)C(=O)NC2=O)c2ccccc21` [Compound 13, 3-[5-chloro-1-(3-pyridinyl)-1H-indol-3-yl]-4-[1-[3-(dimethylamino)propyl]-1H-indazol-3-yl]-1H-pyrrole-2,5-dione], for which the IC50 turned out to be 0.004 µM in assay [2], 0.045 µM in assay [3] and 0.011 µM in assay [4].

For `O=C1NC(=O)C(c2nn(CCCO)c3ccccc23)=C1c1cn(-c2ccccn2)c2ccccc12` [Compound 102, 3-[1-(3-hydroxypropyl)-1H-indazol-3-yl]-4-[1-(2-pyridinyl)-1H-indol-3-yl]-1H-pyrrole-2,5-dione], the IC50 in assay [1] was 0.21 µM.

As to `CC(C)(C)OC(=O)NCCCn1nc(C2=C(c3cn(-c4cccnc4)c4ccccc34)C(=O)NC2=O)c2ccccc21` [Compound 115, [3-[3-[2,5-dihydro-2,5-dioxo-4-[1-(3-pyridinyl)-1H-indol-3-yl]-1H-pyrrol-3-yl]-1H-indazol-1-yl]propyl]-carbamic acid 1,1-dimethylethyl ester], the IC50 in assay [1] was 0.055 µM.

As to `CCn1nc(C2=C(c3cn(CCCN4CCOCC4)c4ccccc34)C(=O)NC2=O)c2cc(Cl)ccc21` [Compound 86, 3-(5-chloro-1-ethyl-1H-indazol-3-yl)-4-[1-[3-(4-morpholinyl)propyl]-1H-indol-3-yl]-1H-pyrrole-2,5-dione], in assay [1], the IC50 came to 0.13 µM.

One may read the IC50 as the concentration needed to halve the response being measured.

These data come from US7329657B2, “Indazolyl-substituted pyrroline compounds as kinase inhibitors” (Ortho-McNeil Pharmaceutical, Inc., priority 2000, dated 2008).
